Assay results: US7935688B2, “Vitamin D-like compound” (Chugai Seiyaku Kabushiki Kaisha, priority 2005, dated 2011)

The compounds below were run on osteocalcin production in MG-63 cells (assay: Osteocalcin production in MG-63 cells (Gla-type Osteocalcin EIA)). Conditions: (EC50 value of 1,25(OH)2D3/EC50 value of each compound)×100; eight hours exposure, then four days culture.
Format: cell-based, human
Description: mg-63 was obtained from Institute for Fermentation, Osaka as a human osteoblast-like cell line. MG-63 cells were maintained and cultured in a MEM medium (Minimum essential medium; pH 7.0; Invitrogen Corporation, Carlsbad, Calif., USA) containing 5% fetal bovine serum (FBS; HyClone, Logan, Utah, USA).
MG-63 cells were adjusted to a density of 4.0×10^4 cells/mL, plated in a 96-well plate at 200 μL per well, and cultured under conditions of 37° C. and 5% carbon dioxide for 24 hours.
After removing the medium, MEM containing 5% charcoal/dextran treated FBS (DCC-FBS; Hyclone, Logan, Utah, USA) was added at 180 μL/well. The test substance (1.0×10^−3 mol/L) was diluted with dimethyl sulfoxide (DMSO) to 1.0×10^−4 mol/L, 1.0×10^−5 mol/L, 1.0×10^−6 mol/L, 1.0×10^−7 mol/L and 1.0×10^−8 mol/L. 1,25(OH)2D3 was used as a positive control. Like the test substance, 1,25(OH)2D3 was diluted with DMSO. 0.02 mL of the positive control and the test substance diluted 100-fold with MEM containing 5% DCC-FCS was added to each well of the 96-well plate, so that the final drug concentration was 1.0×10^−6 mol/L to 1.0×10^−11 mol/L. Thereafter, the cells were cultured under conditions of 37° C. and 5% carbon dioxide for eight hours.
After culturing for eight hours, the medium was removed, and MEM containing 5% DCC-FBS was added at 0.2 mL per well. The cells were cultured under conditions of 37° C. and 5% carbon dioxide for four days, and the medium was recovered. The medium was stored at −80° C. until osteocalcin measurement.
The Gla-type Osteocalcin EIA kit (Takara Bio Inc., Tokyo, Japan) was used for measurement of osteocalcin. Measurement was carried out using a microplate reader (Model 3550, Bio-Rad Laboratories, Inc., Hercules, Calif., USA) at a wavelength of 450 nm, and the results were analyzed by Microplate Manager III (Bio-Rad Laboratories, Inc., ver. 1.57).
The median effective concentration (EC50) was calculated from the osteocalcin concentration. Potency of induction of each compound was calculated as a ratio of EC50 of 1,25(OH)2D3 to EC50 of the compound. The relation between diseases and induction of osteocalcin production is described in Lancet (1984 May 19), 1 (8386), 1091-3; Steroids 66, 159-170 (2001); and Journal of Steroid Biochemistry & Molecular Biology 89-90, 269-271 (2004), for example.
The osteocalcin production level in MG-63 cells (%) was calculated by the formula: (EC50 value of 1,25(OH)2D3/EC50 value of each compound)×100.
With `CCC(CC)(c1ccc(CCC(O)C(C)(C)C)c(C)c1)c1ccc(-c2ccc(CC(=O)O)cc2)c(C)c1` (single isomer, unassigned) [Example 13, (4′-{1-ethyl-1-[4-(3-hydroxy-4,4-dimethyl-pentyl)-3-methyl-phenyl]-propyl}-2′-methyl-biphenyl-4-yl)-acetic Acid] the “Osteocalcin production level in MG-63 cells (%)” value was 401%. `CCC(CC)(c1ccc(CCC(O)C(C)(C)C)c(C)c1)c1ccc(-c2cccc(CC(=O)O)c2)c(C)c1` (single isomer, unassigned) [Example 14, (4′-{1-ethyl-1-[4-(3-hydroxy-4,4-dimethyl-pentyl)-3-methyl-phenyl]-propyl}-2′-methyl-biphenyl-3-yl)-acetic Acid] was tested, and the “Osteocalcin production level in MG-63 cells (%)” value was 161%. `CCC(CC)(c1ccc(CCC(O)C(C)(C)C)c(C)c1)c1ccc(-c2ccc(CC(=O)O)cn2)c(C)c1` (single isomer, unassigned) [Example 23, [6-(4-{1-ethyl-1-[4-(3-hydroxy-4,4-dimethyl-pentyl)-3-methyl-phenyl]-propyl}-2-methyl-phenyl)-pyridin-3-yl]-acetic Acid] was tested, and the “Osteocalcin production level in MG-63 cells (%)” value was 3264%. For `CCC(CC)(c1ccc(CCC(O)C(C)(C)C)c(C)c1)c1ccc(-c2cncc(CC(=O)O)c2)c(C)c1` (single isomer, unassigned) [Example 24, [5-(4-{1-ethyl-1-[4-(3-hydroxy-4,4-dimethyl-pentyl)-3-methyl-phenyl]-propyl}-2-methyl-phenyl)-pyridin-3-yl]-acetic Acid], the “Osteocalcin production level in MG-63 cells (%)” value was 660%. With `C=C1/C(=C\C=C2/CCC[C@]3(C)[C@@H]([C@H](C)CCCC(C)(C)O)CC[C@@H]23)C[C@@H](O)C[C@@H]1O` [1,25(OH)2D3, 1α,25-dihydroxyvitamin D3, reference compound] the “Osteocalcin production level in MG-63 cells (%)” value was 100%. `CCC(O)(/C=C/c1ccc(C(CC)(CC)c2ccc(-c3ccc(CC(=O)O)cc3)c(C)c2)cc1C)CC` [Example 22, (E)-(4′-{1-ethyl-1-[4-(3-ethyl-3-hydroxy-1-pentenyl)-3-methyl-phenyl]-propyl}-2′-methyl-biphenyl-4-yl)-acetic Acid] was tested, and the “Osteocalcin production level in MG-63 cells (%)” value was 1044%. With `CCC(CC)(c1ccc(C#CC(O)(C(F)(F)F)C(F)(F)F)c(C)c1)c1ccc(-c2ccc(CC(=O)O)cc2)c(C)c1` [Example 45, (4′-{1-ethyl-1-[3-methyl-4-(4,4,4-trifluoro-3-hydroxy-3-trifluoromethyl-1-butynyl)-phenyl]-propyl}-2′-methyl-biphenyl-4-yl)-acetic Acid] the “Osteocalcin production level in MG-63 cells (%)” value was 546%. For `CCC(CC)(c1ccc(/C=C/C(O)(C(F)(F)F)C(F)(F)F)c(C)c1)c1ccc(-c2ccc(CC(=O)O)cc2)c(C)c1` [Example 46, (4′-{1-ethyl-1-[3-methyl-4-((E)-4,4,4-trifluoro-3-hydroxy-3-trifluoromethyl-1-butenyl)-phenyl]-propyl}-2′-methyl-biphenyl-4-yl)-acetic Acid], the “Osteocalcin production level in MG-63 cells (%)” value was 2233%. `CCC(O)(/C=C/c1ccc(C(CC)(CC)c2ccc(-c3ccc(CC(=O)[O-])c(F)c3)c(C)c2)cc1C)CC.[Na+]` [Example 48, Sodium (4′-{1-ethyl-1-[4-((E)-3-ethyl-3-hydroxy-1-pentenyl)-3-methyl-phenyl]-propyl}-3-fluoro-2′-methyl-biphenyl-4-yl)-acetate] was tested, and the “Osteocalcin production level in MG-63 cells (%)” value was 508%. With `CCC(CC)(c1ccc(OCC(O)C(C)(C)C)c(C)c1)c1ccc(-c2ccc(CC(=O)O)cc2)c(C)c1` (stereo not shown) [Example 51, (4′-{1-ethyl-1-[4-(2-hydroxy-3,3-dimethyl-butoxy)-3-methyl-phenyl]-propyl}-2′-methyl-biphenyl-4-yl)-acetic Acid] the “Osteocalcin production level in MG-63 cells (%)” value was 650%. In the case of `CCC(CC)(c1ccc(/C=C/C2(O)CCCC2)c(C)c1)c1ccc(-c2ccc(CC(=O)O)cc2)c(C)c1` [Example 53, (E)-[4′-(1-Ethyl-1-{4-[2-(1-hydroxy-cyclopentyl)-vinyl]-3-methyl-phenyl}-propyl)-2′-methyl-biphenyl-4-yl]-acetic Acid], the “Osteocalcin production level in MG-63 cells (%)” value is reported as 772%. With `CCC(CC)(c1ccc(/C=C/C2(O)CCCCC2)c(C)c1)c1ccc(-c2ccc(CC(=O)O)cc2)c(C)c1` [Example 56, (E)-[4′-(1-ethyl-1-{4-[2-(1-hydroxy-cyclohexyl)-vinyl]-3-methyl-phenyl}-propyl)-2′-methyl-biphenyl-4-yl]-acetic Acid] the “Osteocalcin production level in MG-63 cells (%)” value was 1379%. In the case of `CCC(CC)(c1ccc(CCC(O)C(C)(C)C)c(C)c1)c1ccc(-c2ccc(CC(=O)O)c(F)c2)c(C)c1` (stereo not shown) [Example 60, (4′-{1-ethyl-1-[4-(3-hydroxy-4,4-dimethyl-pentyl)-3-methyl-phenyl]-propyl}-3-fluoro-2′-methyl-biphenyl-4-yl)-acetic Acid], the “Osteocalcin production level in MG-63 cells (%)” value is reported as 3798%. For `CCC(CC)(c1ccc(CCC(O)C(C)(C)C)c(C)c1)c1ccc(-c2ccc(CC(=O)O)c(Cl)c2)c(C)c1` (stereo not shown) [Example 61, (4′-{1-ethyl-1-[4-(3-hydroxy-4,4-dimethyl-pentyl)-3-methyl-phenyl]-propyl}-3-chloro-2′-methyl-biphenyl-4-yl)-acetic Acid], the “Osteocalcin production level in MG-63 cells (%)” value was 956%. With `CCC(CC)(c1ccc(/C=C/C(O)(C(F)(F)F)C(F)(F)F)c(C)c1)c1ccc(-c2ccc(CC(=O)O)c(F)c2)c(C)c1` [Example 72, (4′-{1-ethyl-1-[3-methyl-4-((E)-4,4,4-trifluoro-3-hydroxy-3-trifluoromethyl-1-butenyl)-phenyl]-propyl}-3-fluoro-2′-methyl-biphenyl-4-yl)-acetic Acid] the “Osteocalcin production level in MG-63 cells (%)” value was 1624%. With `CCC(CC)(c1ccc(/C=C/C(O)(C(F)(F)F)C(F)(F)F)c(C)c1)c1ccc(-c2ccc(CC(=O)O)c(Cl)c2)c(C)c1` [Example 73, (3-chloro-4′-{1-ethyl-1-[3-methyl-4-((E)-4,4,4-trifluoro-3-hydroxy-3-trifluoromethyl-1-butenyl)-phenyl]-propyl}-2′-methyl-biphenyl-4-yl)-acetic Acid] the “Osteocalcin production level in MG-63 cells (%)” value was 1595%. For `CCC(CC)(c1ccc(/C=C/C(O)(C(F)(F)F)C(F)(F)F)c(C)c1)c1ccc(-c2ccc(CC(=O)O)cn2)c(C)c1` [Example 74, [6-(4-{1-ethyl-1-[3-methyl-4-((E)-4,4,4-trifluoro-3-hydroxy-3-trifluoromethyl-1-butenyl)-phenyl]-propyl}-2-methyl-phenyl)-pyridin-3-yl]-acetic Acid], the “Osteocalcin production level in MG-63 cells (%)” value was 1848%. In the case of `CCC(CC)(c1ccc(/C=C/C(O)(C(F)(F)F)C(F)(F)F)c(C)c1)c1ccc(-c2cncc(CC(=O)O)c2)c(C)c1` [Example 75, [5-(4-{1-ethyl-1-[3-methyl-4-((E)-4,4,4-trifluoro-3-hydroxy-3-trifluoromethyl-1-butenyl)-phenyl]-propyl}-2-methyl-phenyl)-pyridin-3-yl]-acetic Acid], the “Osteocalcin production level in MG-63 cells (%)” value is reported as 1283%. With `CCC(CC)(c1ccc(C#CC(O)(C(F)(F)F)C(F)(F)F)c(C)c1)c1ccc(-c2ccc(CC(=O)O)c(F)c2)c(C)c1` [Example 78, (4′-{1-ethyl-1-[3-methyl-4-(4,4,4-trifluoro-3-hydroxy-3-trifluoromethyl-1-butynyl)-phenyl]-propyl}-3-fluoro-2′-methyl-biphenyl-4-yl)-acetic Acid] the “Osteocalcin production level in MG-63 cells (%)” value was 617%. In the case of `CCC(CC)(c1ccc(/C=C/C2(O)CCCC2)c(C)c1)c1ccc(-c2ccc(CC(=O)[O-])c(F)c2)c(C)c1.[Na+]` [Example 84, Sodium [4′-(1-ethyl-1-{4-[(E)-2-(1-hydroxy-cyclopentyl)-vinyl]-3-methyl-phenyl}-propyl)-3-fluoro-2′-methyl-biphenyl-4-yl]-acetate], the “Osteocalcin production level in MG-63 cells (%)” value is reported as 739%. In the case of `CCC(CC)(c1ccc(/C=C/C2(O)CCCC2)c(C)c1)c1ccc(-c2ccc(CC(=O)O)cn2)c(C)c1` [Example 85, {6-[4-(1-ethyl-1-{4-[(E)-2-(1-hydroxy-cyclopentyl)-vinyl]-3-methyl-phenyl}-propyl)-2-methyl-phenyl]-pyridin-3-yl}-acetic Acid], the “Osteocalcin production level in MG-63 cells (%)” value is reported as 765%. In the case of `CCC(CC)(c1ccc(/C=C/C2(O)CCCCC2)c(C)c1)c1ccc(-c2ccc(CC(=O)O)c(F)c2)c(C)c1` [Example 88, [4′-(1-ethyl-1-{4-[(E)-2-(1-hydroxy-cyclohexyl)-vinyl]-3-methyl-phenyl}-propyl)-3-fluoro-2′-methyl-biphenyl-4-yl]-acetic Acid], the “Osteocalcin production level in MG-63 cells (%)” value is reported as 4562%.
